Results: publication PMC11001709, “Anti-toxoplasma activity and DNA-binding of copper(II) and zinc(II) coordination compounds with 5-nitroimidazole-based ligands” (Journal of Biological Inorganic Chemistry, 2023)
Where two headings read alike, the source gives them in different places.

Legend:
pBR322 plasmid DNA = assay: Agarose gel electrophoresis, DNA cleavage; format: biochemical
Description: Electrophoresis assays were performed in 1.5% agarose gel and 1× TBE buffer using the DNA plasmid pBR322. The plasmid (15 µM base pairs) was incubated with 10 and 50 μM concentrations of the coordination compounds for 1 h at 37 °C in presence and absence of ascorbic acid (50 μM) as reducing agent and hydrogen peroxide (500 µM) as ROS generator in a final volume of 20 μL. The DNA-cleaving compound [Cu(phen)2(H2O)](NO3)2 was used as reference. The samples were loaded into the gel with 4 μL of a loading buffer (30% glycerol, 5 mM xylene cyanol), and electrophoresis was performed in 1× TBE at 100 V for 1 h in a Bio-Rad horizontal tank. Subsequently, the gel was stained with SYBR™ Safe overnight and images were acquired with a Gel Doc EZ Imager instrument (Bio-Rad).
Distinct forms of pBR322 plasmid DNA are commonly observed by gel electrophoresis due to the conformational changes that present distinct electrophoretic mobility: (1) supercoiled DNA (Form I) that migrates faster on the gel, (2) circular nicked (Form II), obtained from a one-strand scission, has a slower migration through the gel and (3) linear form (Form III) is generated when both strands are cleaved and migrates between forms I and II [54]. The interaction of the free ligands and their copper(II) and zinc(II) coordination compounds with pBR322 was investigated in presence of H2Asc (50 μM) as reducing agent and H2O2 (500 μM) as ROS generator. Solutions of 10 and 50 µM of the coordination compounds were incubated with the DNA at 37 °C for 1 h.

ct-DNA = assay: Competitive displacement of ethidium bromide from DNA (fluorescence); format: binding, calf; conditions: EB 75 µM, [DNA]b = 30 µM, compound 0-50 µM, 1 h
Description: For the UV–Vis, fluorescence and circular dichroism assays the concentration of ct-DNA was determined on a Varian Cary 100 Scan spectrophotometer from the absorption at 260 nm and the corresponding molar absorptivity of 6600 M^−1 cm^−1 (nucleobase concentration). The stock solutions of the coordination compounds and the free ligands were prepared in cacodylate/NaCl buffer (1 mM cacodylic acid and 20 mM sodium chloride) at pH 7.25. The final samples contained a DMSO concentration of 0.2%.
Emission intensity of the dyes DNA-intercalator ethidium bromide, EB (λexc = 514 nm) and the minor-groove binder Hoechst 33,258 (λexc = 350 nm) was measured on iHR320 HORIBA JOBIN YVON spectrofluorometer. The samples contained 15 µM (in base pairs) of ct-DNA and 75 µM of EB […] in cacodylate/NaCl buffer. The respective dye was incubated for 30 min with ct-DNA to allow its binding to the biomolecule. Subsequently, increasing amounts of coordination compounds (0–50 µM) were added up to a final volume of 2 mL, and the samples were incubated for 1 h at 37 °C. The fluorescence spectra of all samples were recorded at room temperature. The affinity of the compounds for ct-DNA compared to EB was evaluated through the Stern–Volmer quenching constant Ksv, from Eq. 3:3 I0/I=1+Ksvcompound where I0 and I are the emission intensities in absence and the presence of the compound, respectively.
With the aim to corroborate the binding mode of the coordination compounds with DNA competitive displacement assays were carried out by florescence spectroscopy. The fluorescence of ethidium bromide (EB) increases when it intercalates between DNA base pairs, forming an EB-DNA adduct. Competitive binding assays will lead to a decrease of the fluorescence intensity (λexc = 514 nm; λem = 610 nm) if the interacting molecule is capable of displacing EB from the DNA helix. Solutions containing constant concentrations of DNA (30 µM) and EB (75 µM) were incubated for 30 min. Then the coordination compounds to be tested were added in a concentration in the range of 0–50 µM (corresponding to [complex]/[DNA] ratios between = 0 and 3.3), and fluorescence spectra were recorded after 1 h of incubation.

[1] = tested on: RH tachyzoites of Toxoplasma gondii; assay: Viability of extracellular tachyzoites, Sytox Green exclusion test; format: cell-based
Description: RH tachyzoites of Toxoplasma gondii were extracted in PBS solution at pH 7.4 from intraperitoneal fluid of infected CD1 mice on the third day of infection and centrifuged for ten minutes at 260g. Purified parasites were used within 4 h after their isolation.
The viability of the parasites was determined from staining with Sytox Green® fluorescent dye exclusion test. Purified tachyzoites (1 × 10^6) were incubated for one hour at room temperature with PBS solutions of the coordination compounds or the free ligands at concentrations of 40, 20, 10, 5, and 2.5 µM (0.1% DMSO), in a volume final of 1 mL. After the incubation time, the samples were centrifuged for 10 min at 250g, the medium was removed and 20 µL of Sytox Green® was added after 15 min of incubation for differentiate dead parasites in a Neubauer chamber. The assays were performed in triplicate. The half maximal inhibitory concentration (IC50) was calculated by Boltzmann regression analysis and expressed as mean ± standard error of three replicates. Based on the results the tachyzoites were incubated under the same conditions with the coordination compounds [Cu(onz)2Cl2] and [Cu(onz)2Br2] at their respective IC50 values, Sytox Green® was then added, and they were observed by fluorescence microscopy. Sulfadiazine was used as positive control.
Viability assays were performed against tachyzoites of Toxoplasma gondii. The RH strain was used to evaluate the effect of different concentrations (namely, 2.5, 5, 10, 20 and 40 µM) of the coordination compounds and the free 5-nitroimidazole against the tachyzoites. The evaluation were performed in PBS buffer (pH 7.4) with Sytox Green® exclusion test, which allows differentiating dead from live tachyzoites, since the intact cell membrane of alive ones is not stained.

[2] = tested on: mouse fibroblast L929 cells; assay: Cytotoxic activity in healthy host cells; format: cell-based
Description: The IC50 values obtained for [Cu(onz)2Cl2] (210.2 μM) and [Cu(onz)2Br2]

[3] = compound 10 (mM in the source), + H2Asc
[4] = compound 10 (mM in the source), + H2Asc + H2O2
[5] = compound 10 (mM in the source), + H2O2
[6] = compound 10 (mM in the source), no additive
[7] = compound 50 (mM in the source), + H2Asc
[8] = compound 50 (mM in the source), + H2Asc + H2O2
[9] = compound 50 (mM in the source), + H2O2
[10] = compound 50 (mM in the source), no additive
[11] = 1 h, PBS pH 7.4, mean ± standard error of three replicates, read-out: IC50
[12] = viability vs concentration, read-out: IC50 (Boltzman Fit, Fig. S6)

| Compound | %Damage (pBR322 plasmid DNA; [3]) | %Nicked (pBR322 plasmid DNA; [3]) | %Supercoiled (pBR322 plasmid DNA; [3]) | %Damage (pBR322 plasmid DNA; [4]) | %Nicked (pBR322 plasmid DNA; [4]) | %Supercoiled (pBR322 plasmid DNA; [4]) | %Damage (pBR322 plasmid DNA; [5]) | %Nicked (pBR322 plasmid DNA; [5]) | %Supercoiled (pBR322 plasmid DNA; [5]) | %Damage (pBR322 plasmid DNA; [6]) | %Nicked (pBR322 plasmid DNA; [6]) | %Supercoiled (pBR322 plasmid DNA; [6]) | %Damage (pBR322 plasmid DNA; [7]) | %Damage (pBR322 plasmid DNA; [8]) | %Damage (pBR322 plasmid DNA; [9]) | %Damage (pBR322 plasmid DNA; [10]) | %Nicked (pBR322 plasmid DNA; [10]) | %Supercoiled (pBR322 plasmid DNA; [10]) | Ethidium bromide Ksv (ct-DNA) | IC50 [1, 11] | other results |
| --- | --- | --- | --- | --- | --- | --- | --- | --- | --- | --- | --- | --- | --- | --- | --- | --- | --- | --- | --- | --- | --- |
| Cc1ncc([N+](=O)[O-])n1CCCl.Cc1ncc([N+](=O)[O-])n1CCCl.[Br][Zn][Br] [[Zn(cenz)2Br2]] | 28.40% | 6.40% | 71.60% | 89.00% | 75.80% | 11.00% | 19.30% | 27.20% | 80.70% | 6.20% | 3.00% | 93.80% | 96.10% | 78.40% | 98.40% | 11.60% | 2.20% | 88.40% | 1100 M⁻¹ | 40 ± 0.96 µM | %Nicked (pBR322 plasmid DNA; [7]): 39.50%; %Supercoiled (pBR322 plasmid DNA; [7]): 3.90%; %Nicked (pBR322 plasmid DNA; [8]): 10.40%; %Supercoiled (pBR322 plasmid DNA; [8]): 21.60%; %Nicked (pBR322 plasmid DNA; [9]): 63.30%; %Supercoiled (pBR322 plasmid DNA; [9]): 1.60%; IC50 [1, 12]: 40 µM |
| Cc1ncc([N+](=O)[O-])n1CCCl.Cc1ncc([N+](=O)[O-])n1CCCl.[Br][Cu][Br] [[Cu(cenz)2Br2]] | 43.90% |  | 56.10% | 100.00% |  |  | 84.00% | 37.10% | 16.00% | 37.80% | 11.30% | 62.20% | 100.00% | 100.00% | 100.00% | 33.80% | 7.50% | 66.20% | 35000 M⁻¹ |  |  |
| Cc1ncc([N+](=O)[O-])n1CC(O)CCl.Cc1ncc([N+](=O)[O-])n1CC(O)CCl.[Cl-].[Cl-].[Cu+2] (stereo not drawn) [[Cu(onz)2Cl2]] | 58.10% | 33.00% | 41.90% | 80.60% | 46.50% | 19.40% | 16.40% | 6.10% | 83.60% | 36.40% | 6.40% | 63.60% | 100.00% | 100.00% | 100.00% | 33.80% | 9.70% | 66.20% | 26000 M⁻¹ | 8.49 ± 0.64 µM | IC50 [2]: 210 µM; IC50 [1, 12]: 8.49 µM |
| Cc1ncc([N+](=O)[O-])n1CC(O)CCl.Cc1ncc([N+](=O)[O-])n1CC(O)CCl.[Cl][Zn][Cl] (stereo not drawn) [[Zn(onz)2Cl2]] | 91.2% | 65.70% | 8.80% | 67.90% | 44.00% | 32.10% | 10.80% | 5.90% | 89.20% | 14.6% |  | 85.40% | 100% | 100.00% | 78.30% | 32.9% | 3.90% | 67.10% | 4500 M⁻¹ |  | %Nicked (pBR322 plasmid DNA; [7]): 4.80%; %Nicked (pBR322 plasmid DNA; [9]): 47.60%; %Supercoiled (pBR322 plasmid DNA; [9]): 21.70% |
| Cc1ncc([N+](=O)[O-])n1CCCl.Cc1ncc([N+](=O)[O-])n1CCCl.[Cl][Cu][Cl] [[Cu(cenz)2Cl2]] | 33.20% | 16.60% | 66.80% | 100.00% |  |  | 83.50% | 84.30% | 16.50% | 12.00% |  | 88.00% | 100.00% | 100.00% | 100.00% | 31.50% |  | 68.50% |  | 30.55 ± 0.25 µM | IC50 [1, 12]: 30.6 µM |
